Columns and labels:
[1] = test system: cardiac fibroblasts transfected with AdV-Kv1.3-GFP; experiment: Cell viability and apoptosis with Hoechst nuclei stain in Kv1.3 transfected cardiac fibroblasts; assay type: cell-based, rat; conditions: for rescue of cells from Kv1.3 induced apoptosis: Kv1.3 transfected fibroblasts, n=3 for each titer, three days in culture
Description: (§1) Cells: Primary neonatal cardiac cells were obtained from ventricles of 2-3-day-old rat pups. The ventricles were fine minced, dissociated in Ca^2+-free Hank's balanced salt solution (HBSS) supplemented with 0.1%, trypsin and 0.006% pancreatin, and dispersed by triturating.
(§2) Separation and culture of cardiac myocytes and fibroblasts: The solution of dispersed cells was supplemented with 10% neonatal calf serum to stop enzymatic activity, centrifuged, resuspended in culture medium, pre-plated in large culture flasks, and incubated for two hours to isolate the fibroblast enriched fraction. Fibroblasts were further purified by media exchange within 1 hour after each passage. The myocytes remaining in suspension were collected and plated at 1.5 10^5 cells/cm^2 and grown for five to seven days before experimentation.
(§3) Transfection: Subconfluent myocyte and fibroblast cultures were transfected with AdV-Kv1.3-GFP or AdV-GFP at 10^6-10^8 PFU/ml. After transfection the cells were cultured in 0-5% serum media with 0, 1, 10 or 100 nM Charybdotoxin (CTx), which is a specific K^+ channel blocker. After three days in culture, the cells were visually monitored and assayed.
Cell Viability and apoptosis: Cells were assayed for viability and apoptosis with Hoechst nuclei stain.

[2] = test system: cardiac fibroblasts transfected with AdV-Kv1.3-GFP; experiment: Phase contrast microscopy of cellular morphology of Kv1.3 expressing cardiac fibroblasts; assay type: cell-based, rat; conditions: cells expressing Kv1.3 after 10^7 PFU/ml AdV-Kv1.3-GFP; phase contrast microscopy (FIG. 8B)
Description: as §1, §2, §3

With Charybdotoxin the “rescue of cells from Kv1.3 induced apoptosis” value ([1]; Charybdotoxin alone (FIG. 7A)) was “partially rescued the cells”, the “rescue of cells from Kv1.3 induced apoptosis” value ([1]; cTx and 5% serum (FIG. 7B)) was “partially rescued the cells” and the “cardiac fibroblast cell viability” value ([1]; cells expressing Kv1.3, addition of Charybdotoxin (FIG. 8)) was “rescued”. The “cellular morphology of the fibroblasts” value [2] was “maintained normal cellular morphology”.

— patent US20110144028A1, “MODULATING CELLULAR ELECTROPHYSIOLOGY” (priority 2009, published 2011)
